From the Deep4Chem optical property database come the findings set out here.

A short description of this series: solvent given as SMILES.

`CCCC(=O)c1c(OCOC)c(OCOC)c(C(=O)CCC)c2c1OCO2` registered an absorption maximum (in CC#N) of 332 nm.

With `CCOC(=O)/N=c1/oc2cc(OC)cc(OC)c2cc1C#N`, where the note is “in ClCCl”, the absorption maximum came out at 376 nm.

Consider `Cc1ccc(/C=C/c2nc(-c3cccc([N+](=O)[O-])c3)[nH]c2/C=C/c2ccc(C)cc2)cc1`, for which the absorption maximum (in ClCCl) is reported as 370 nm.

In turn, `CCCCc1c2c(nc3ccccc13)-c1cc3c(cc1CC2)-c1nc2ccccc2c(CCCC)c1CC3` yielded an absorption maximum (in ClC(Cl)Cl) of 372 nm.

In turn, `CCN1c2ccc(-c3cc(-c4ccccc4)[nH]n3)cc2Sc2cc(-c3cc(-c4ccccc4)[nH]n3)ccc21` displayed an absorption maximum (in C1CCOC1) of 338 nm; an absorption maximum (in CC#N) of 338 nm; an absorption maximum (in CN(C)C=O) of 336 nm; an absorption maximum (in ClCCl) of 336 nm; an absorption maximum (in c1ccccc1) of 338 nm.

For the compound `CC(C)CCCC(C)CCN1C(=O)c2ccc3c(-c4ccccc4)c4c5ccc6c7c(ccc(c(-c8ccccc8)c4c4ccc(c2c34)C1=O)c75)C(=O)N(CCC(C)CCCC(C)C)C6=O` (configuration not stated), the absorption maximum (in ClCCl) amounted to 630 nm.

Turning to `Cc1cc2nc3[nH]c(=O)n(C)c(=O)c3nc2cc1C`, the absorption maximum (in CC#N) was 379 nm.

Compound `COc1ccc(-c2ccc(/C=C/c3cnc4ccccc4n3)cc2)cc1` returned an absorption maximum (in ClCCl) of 379 nm.

`COC(=O)C1=C(C(=O)OC)C2=C[C@H]3c4ccccc4[C@]2([Se]1)c1ccccc13`: for the setting “in ClCCl”, the absorption maximum worked out at 370 nm.

For `CN(C)CCN(Cc1c2ccccc2cc2ccccc12)c1ccc([N+](=O)[O-])cc1[N+](=O)[O-]`, the absorption maximum (in C1CCCCC1) turned out to be 372 nm; the absorption maximum (in C1CCOC1) is 394 nm; the absorption maximum (in CC#N) came to 392 nm; the absorption maximum (in CC(C)=O) is 392 nm; the absorption maximum (in CCO) amounted to 394 nm; the absorption maximum (in CN(C)C=O) is reported as 395 nm. The absorption maximum is 391 nm (in CO), 397 nm (in CS(C)=O), 393 nm (in ClC(Cl)Cl) and 394 nm (in ClCCl).

Under “in ClC(Cl)Cl”, `CCN(CC)c1ccc2cc(-c3cn4cc5ccccc5cc4n3)c(=O)oc2c1` came in with an absorption maximum of 434 nm.

For the setting “in Cc1ccccc1”, `CCOC(=O)c1cc2ccc3ccccc3c2c(C(=O)OCC)c1N` came in with an absorption maximum of 427 nm.

On to `Cc1ccc(C(=O)/N=c2\oc3cccc4c5c(-c6ccccc6)oc6cccc(c(c2-c2ccccc2)c34)c65)cc1`, for which, where the note is “in ClC(Cl)Cl”, the absorption maximum is 385 nm.

`CCC1=C(C)C(=O)n2c1cc1c(C)cc(C)n1c2=O`: the absorption maximum amounted to 409 nm (in CC#N); 412 nm (in CC(C)=O); 420 nm (in CO); 420 nm (in CS(C)=O); 420 nm (in ClC(Cl)Cl); 423 nm (in c1ccccc1).

As for `COc1ccc(/C=C/c2nc3ccccc3s2)cc1`, the absorption maximum runs as follows: (in C1CCCCC1) 350 nm; (in CO) 350 nm.

`O=C1OC(c2ccccc2)=C/C1=C\c1ccc([N+](=O)[O-])cc1` gave an absorption maximum (in C1COCCO1) of 416 nm.

Consider `O=S(=O)(/N=c1\oc2cccc3c4c(-c5ccccc5)oc5cccc(c(c1-c1ccccc1)c23)c54)C(F)(F)F`, for which the absorption maximum (in CCCCCC) is 458 nm; the absorption maximum (in CO) was found to be 456 nm; the absorption maximum (in CS(C)=O) worked out at 463 nm; the absorption maximum (in ClC(Cl)Cl) was 460 nm; the absorption maximum (in ClCCl) is 463 nm.

With `Cc1c(C2=[N+]3C(=Cc4c(C)c5ccccc5n4[B-]3(F)F)c3ccccc32)[nH]c2ccccc12`, the absorption maximum runs as follows: (in C1CCOC1) 608 nm; (in CC#N) 591 nm; (in CCCCCC) 623 nm; (in CO) 598 nm; (in Cc1ccccc1) 625 nm; (in ClCCl) 611 nm.

The compound `COc1cc(C2=c3c(c4ccc(C(C)(C)C)cc4c4c(OC)c(OC)c(OC)cc34)=[N+]3C2=Nc2c(-c4cc(OC)c(OC)c(OC)c4)c4c5cc(OC)c(OC)c(OC)c5c5cc(C(C)(C)C)ccc5c4n2[B-]3(F)F)cc(OC)c1OC` gave an absorption maximum (in Cc1ccccc1) of 808 nm.

`NC1=N/C(=N\c2ccccn2)c2cccc3cccc1c23` showed an absorption maximum (in ClCCl) of 365 nm.

As for `COc1ccc(C2=C(c3ccc(OC)cc3)c3cccc4c5c(cc(c34)O2)=NC2C=C(Br)C(Br)=CC2N=5)cc1` (configuration not stated), the absorption maximum (in ClCCl) came to 526 nm.

Consider `FC(F)(F)c1ccc(-n2c(-c3ccc(N(c4ccc(-c5ccc(N(c6ccc(-c7nc8c9ccccc9c9ccccc9c8n7-c7ccc(C(F)(F)F)cc7)cc6)c6ccc(-c7nc8c9ccccc9c9ccccc9c8n7-c7ccc(C(F)(F)F)cc7)cc6)cc5)cc4)c4ccc(-c5nc6c7ccccc7c7ccccc7c6n5-c5ccc(C(F)(F)F)cc5)cc4)cc3)nc3c4ccccc4c4ccccc4c32)cc1`, for which the absorption maximum (in ClCCl) was found to be 376 nm.

For the compound `N#C/C(=C\c1cn(-c2ccccc2)nc1-c1ccc([N+](=O)[O-])cc1)c1nc2ccccc2s1`, the absorption maximum reads like this: (in C1CCOC1) 378 nm; (in C1COCCO1) 379 nm; (in CCOC(C)=O) 375 nm; (in CN(C)C=O) 376 nm; (in CS(C)=O) 375 nm; (in Cc1ccccc1) 383 nm. The compound also gave an absorption maximum (in ClC(Cl)Cl) of 382 nm.

With `CCC1=C(C)C2=Cc3cccn3[B-](F)(F)[N+]2=C1C`, the absorption maximum was determined as 512.5 nm (in C1CCCCC1); 503.5 nm (in CC(C)=O); 505.5 nm (in CCO); 505 nm (in CCOC(C)=O); 504.5 nm (in CO); 494.5 nm (in OCC(F)(F)F).

With `CCOc1ccc2c(-c3nc(-c4ccccc4F)no3)cc(=O)oc2c1`, the absorption maximum worked out at 345 nm (in CCO) and 393 nm (in ClC(Cl)Cl).

Turning to `O=C1Nc2ccccc2/C1=C/C(=O)c1ccc([N+](=O)[O-])cc1`, the absorption maximum runs as follows: (in C1CCCCC1) 341 nm; (in C1COCCO1) 343 nm; (in CC#N) 341 nm; (in CC(C)(C)O) 347 nm; (in CC(C)O) 345 nm; (in CCCCCC) 340 nm. This compound displayed an absorption maximum (in CCCCO) of 346 nm; an absorption maximum (in CCOC(C)=O) of 342 nm; an absorption maximum (in CN(C)C=O) of 344 nm; an absorption maximum (in CO) of 346 nm; an absorption maximum (in ClCCl) of 344 nm.

In the case of `CCCCCCCCC1(CCCCCCCC)c2cc(-c3ccc(C(=O)OC)cc3)ccc2-c2ccc(-c3ccc(C(=O)OC)cc3)cc21`, the absorption maximum (in ClC(Cl)Cl) was determined as 341 nm.

Regarding `CC(C)=NO`, the absorption maximum (in CCO) was 193 nm.

On to `CC(C)c1cccc(C(C)C)c1N1C(=O)c2ccc3c(-c4ccc(C(=O)O)cc4)c4c5ccc6c7c(ccc(c(-c8ccc(C(=O)O)cc8)c4c4ccc(c2c34)C1=O)c75)C(=O)N(c1c(C(C)C)cccc1C(C)C)C6=O`, for which, under “in ClCCl”, the absorption maximum is 622 nm.

The compound `CC(C)[Si](C#Cc1c2ccccc2c(C#C[Si](C(C)C)(C(C)C)C(C)C)c2nc3c(nc12)Cc1ccccc1-3)(C(C)C)C(C)C` registered an absorption maximum (in CCCCCC) of 486 nm.

`CCOC(=O)c1cc(C(=O)OCC)c2ccc(C)cc2n1` displayed an absorption maximum (in CCO) of 321 nm.

Take `N#Cc1ccc(C#Cc2ccccc2C#N)cc1`: the absorption maximum (in ClC(Cl)Cl) turned out to be 297 nm.

`CC(C)(C)c1cc2c3cc(C(C)(C)C)c(-c4cc5cc6c7cccc8cccc(c9cc(C(C)(C)C)cc(c5cc4C(C)(C)C)c96)c87)cc3cc3c4cccc5cccc(c(c1)c23)c54` returned an absorption maximum (in CC1CCCCC1) of 446 nm.

Regarding `O=C([O-])COc1cc(NC(=O)c2ccc(-c3c4cc(Cl)c(=O)cc-4oc4cc(O)c(Cl)cc34)c(C(=O)[O-])c2)ccc1N(CC(=O)[O-])CC(=O)[O-]`, the absorption maximum (in O) came out at 506 nm.

`F[B-]1(F)OC(c2ccccc2)=Cc2cc3[n+](c[n+]21)[B-](F)(F)OC(c1ccccc1)=C3` registered an absorption maximum (in ClCCl) of 475 nm.

On to `Cc1cnc(NC(=O)C2=C([O-])c3ccccc3S(=O)(=O)N2C)s1`, for which the absorption maximum was 371 nm (in CC#N); 369 nm (in CCCCO); 368 nm (in CCCO); 366 nm (in CCO); 364 nm (in CO).

As to `N#Cc1ccc2[nH]ccc2c1`, the absorption maximum was found to be 274.85 nm (in C1COCCO1), 275 nm (in CC#N) and 275 nm (in O).

As to `CCCCCCCCCCCCN1C(=O)c2c(c3ccc4cc(-c5ccc(C)cc5)c(OC)cc4c3c3c2ccc2cc(-c4ccc(C)cc4)c(OC)cc23)C1=O`, under “in ClCCl”, the absorption maximum is reported as 436 nm.

With `N#Cc1c(N2CCCCC2)cc(-c2ccc3ccc4cccc5ccc2c3c45)c2c1-c1ccccc1C2=O`, the absorption maximum (in C1CCOC1) is given as 393 nm.

As for `Cc1ccc(C2=C3C=CC(Cl)=[N+]3[B-](F)(F)n3c(Cl)ccc32)cc1`, the absorption maximum reads like this: (in C1CCCCC1) 514 nm; (in C1CCOC1) 511 nm; (in CC#N) 508 nm; (in CCOC(C)=O) 509 nm; (in CO) 508 nm; (in Cc1ccccc1) 516 nm. Moreover, the absorption maximum (in ClC(Cl)Cl) came to 515 nm.

Under “in ClC(Cl)Cl”, `N#Cc1ccc(-c2cc(-c3ccc(N4CCCC4)cc3)nc(-c3ccccc3)n2)cc1` yielded an absorption maximum of 385 nm.

For the compound `N#Cc1cc(C#N)c(-n2c3ccccc3c3ccccc32)cc1-n1c2ccccc2c2ccccc21`, the absorption maximum (in Cc1ccccc1) amounted to 374 nm.

In turn, `O=c1c2ccccc2n2c3ccccc3c(=O)c3cc(-c4ccccc4)cc1c32` returned an absorption maximum (in CC#N) of 447 nm; an absorption maximum (in CCCCCC) of 437 nm; an absorption maximum (in CCCCOCCCC) of 440 nm; an absorption maximum (in CCOC(C)=O) of 443 nm; an absorption maximum (in CN(C)C=O) of 450 nm; an absorption maximum (in Cc1ccccc1) of 445.76 nm.

Turning to `C(=C\c1cc[n+]2ccc(/C=C/c3ccsc3)cc2c1)/c1ccsc1`, the absorption maximum (in CO) is listed as 432 nm.

As for `CCOC(=O)c1c2c3c(ccc(Br)c3c3cc4c(cc13)[Si](C)(C)O[Si]4(C)C)N(C)C2=O`, the absorption maximum (in CC#N) was found to be 382 nm.
